Article PMC10507154 (iScience, 2023)

Experiments:
[1] = molecular target: T1, SquF (MaSquF) (Marinobacterium aestuarii, UniProt A0A1A9EZ66); test: DNPH derivatization and LC-MS of 6-dehydroglucose; format: biochemical; details: 10 mM NADP^+, 100 mM glucose, 50 mM CAPSO pH 10.0, RT; reverse reaction
T1 sequence (A0A1A9EZ66 1-300): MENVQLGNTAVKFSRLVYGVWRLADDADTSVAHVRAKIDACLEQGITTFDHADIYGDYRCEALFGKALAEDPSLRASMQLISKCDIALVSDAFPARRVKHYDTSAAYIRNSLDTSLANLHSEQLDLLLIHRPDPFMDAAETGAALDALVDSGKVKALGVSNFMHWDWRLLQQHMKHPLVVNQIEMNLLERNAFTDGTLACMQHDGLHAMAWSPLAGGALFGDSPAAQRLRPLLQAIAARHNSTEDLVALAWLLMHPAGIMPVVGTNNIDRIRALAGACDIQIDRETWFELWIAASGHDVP

[2] = molecular target: T1, SquF (MaSquF); test: LC-MS of glucose; format: biochemical; details: 0.5 mM NADPH, 6-dehydroglucose generated from SQ by SqoD, RT

Structure (SMILES) | DNPH derivatization and LC-MS of 6-dehydroglucose [1] | LC-MS of glucose; NADPH consumption [2]
OC[C@H]1OC(O)[C@H](O)[C@@H](O)[C@@H]1O (stereo partly drawn) [D-glucose] | SquF also catalyzed the reverse reaction, oxidation of glucose to 6-dehydoglucose | 
NC(=O)C1=CN([C@@H]2O[C@H](COP(=O)(O)OP(=O)(O)OC[C@H]3O[C@@H](n4cnc5c(N)ncnc54)[C@H](OP(=O)(O)O)[C@@H]3O)[C@@H](O)[C@H]2O)C=CC1 [NADPH] |  | Inclusion of SquF and NADPH in the assay followed by LC-MS analysis
